Data taken from PMC3753754, “Andrographis paniculata Extract and Andrographolide Modulate the Hepatic Drug Metabolism System and Plasma Tolbutamide Concentrations in Rats” (Evidence-based Complementary and Alternative Medicine : eCAM, 2013).
Marks after values point to notes of the source that are not given here.

Legend:
[1] = target: T1, aryl hydrocarbon receptor (AhR) (Rattus norvegicus, UniProt P41738); assay: EMSA of liver nuclear protein binding to XRE consensus sequence; assay type: in vivo; details: APE or andrographolide for 5 days
T1 construct: from tissue; host or cells: crude liver nuclear extract of treated Sprague-Dawley rats
Method: Nuclear proteins of liver tissues were extracted as described by Tian et al. with some modifications. Briefly, 0.1 g of liver was homogenized (1 : 9, w/v) with 0.9 mL of ice-cold 10 mM HEPES buffer (pH 7.9) containing 10 mM KCl, 1 mM MgCl2, 0.1 mM EDTA, 0.5 mM dithiothreitol, 0.5 mM PMSF, 4 μg/mL leupeptin, and 20 μg/mL aprotinin. The homogenates were placed in an ice bath for 15 min and then centrifuged at 600 ×g for 10 min. Then, 100 μL of 10% Nonidet P-40 was added to the supernatant, and the samples were allowed to sit in an ice bath for 10 min. The supernatant was centrifuged at 5,000 ×g for 5 min. The pellet, containing crude nuclei, was resuspended in 100 μL of hypertonic buffer containing 10 mM HEPES, 400 mM KCl, 1 mM MgCl2, 0.1 mM EDTA, 0.5 mM dithiothreitol, 4 μg/mL leupeptin, 20 μg/mL aprotinin, 25% glycerol, and 0.5 mM PMSF at 4°C for 45 min. Nuclear proteins were then collected by centrifugation at 12,000 ×g for 15 min.
EMSA was performed according to the method reported previously. The LightShift Chemiluminescent EMSA Kit (Pierce, Rockford, IL) and synthetic biotin-labeled double-stranded consensus oligonucleotides of DR4 (5′-[…]-3′) and xenobiotic response element (XRE) (forward: 5′-[…]-3′) were used to measure pregnane X receptor (PXR) and aryl hydrocarbon receptor (AhR) nuclear protein-DNA-binding activity. […]

[2] = Glucose tolerance test after tolbutamide in high-fat diet-induced obese mice; assay type: in vivo, C57BL/6 mice
Method: (§1) Eleven-month-old high-fat diet-fed (45% of energy from fat; Research Diet Inc., New Brunswick, NJ) C57BL/6 mice were obtained from the National Health Research Institute (Miaoli, Taiwan). Control mice were orally administered 0.5% methyl cellulose (10 mL/kg). […] After the 5th daily dose, the mice were deprived of food overnight. On day 6, a 20 mg/kg oral dose of tolbutamide, as a solution in Cremophor EL/ethanol/water (30/10/60, v/v/v), was administered to each mouse. Thirty minutes later, a 1 g/kg dose of glucose, as a solution in water, was administered orally according to the method described by Zong et al.. Serial blood samples were collected up to 8 h after the glucose dose from each mouse. The animals were then killed by exsanguination and the livers collected.
Plasma glucose was determined by use of enzymatic kits purchased from Audit Diagnostics Co. (Cork, Ireland). Plasma aspartate aminotransferase (AST) and alanine aminotransferase (ALT) activities were measured by using commercial kits purchased from Randox Laboratories (Antrim, UK).

CYP2C6/11 = assay: Hepatic CYP2C6 and CYP2C11 protein expression in high-fat diet-induced obese mice; assay type: in vivo, C57BL/6 mice; details: 2 g/kg APE or 50 mg/kg AND daily for 5 days
Method: as §1
Aliquots of microsomal protein (10 μg) were electrophoresed in an SDS-polyacrylamide gel, and proteins were then transferred to polyvinylidene fluoride membranes. After blocking, membranes were hybridized with antibodies to CYP1A1, CYP1A2, CYP2C6, CYP2C11, CYP2D1, CYP2E1, CYP3A1, and CYP3A2.

CYP2E1 = assay: p-Nitrophenol 6-hydroxylation in liver microsomes of treated rats; assay type: in vivo; details: rat liver microsomes; oral 2 g/kg APE or 50 mg/kg AND daily for 5 days
Method: (§2) Liver was homogenized (1 : 4, w/v) in an ice-cold potassium phosphate buffer (pH 7.4) containing 7.4 mM K2HPO4, 2.6 mM KH2PO4, 1.15% KCl, and 1 mM phenylmethylsulfonyl fluoride (PMSF). Tissue homogenates were centrifuged at 10,000 ×g for 30 min at 4°C. The resulting supernatant was then centrifuged at 105,000 ×g for 1 h at 4°C. The microsomes thus obtained were washed several times to get rid of possible tolbutamide contamination and this can avoid tolbutamide interference of CYP activity, and the microsomes were then suspended in potassium phosphate buffer (pH 7.7) containing 7.5 mM K2HPO4, 14.5 mM KH2PO4, and 1 mM EDTA. […] Metabolites of each CYP enzyme reaction were determined by LC/MS as reported previously. The contents of total CYP and cytochrome b5 were quantified by the method of Omura and Sato [29]. Enzyme activity is expressed as picomoles of metabolite formed per minute per milligram of protein. The NADPH-CYP reductase activity was measured as described by Phillips and Langdon with the use of cytochrome c as the substrate. The microsomal protein concentration was determined by using a Coomassie Plus protein assay kit (Pierce, Rockford, IL, USA).

CYP1A1 = assay: Ethoxyresorufin O-deethylation in liver microsomes of treated rats; assay type: in vivo; details: rat liver microsomes; oral 2 g/kg APE or 50 mg/kg AND daily for 5 days
Method: as §2

[3] = obese mice, 2 g/kg APE or 50 mg/kg AND for 5 days, day 6 tolbutamide 20 mg/kg oral, 30 min later glucose 1 g/kg oral

T1 sequence (P41738 10-853): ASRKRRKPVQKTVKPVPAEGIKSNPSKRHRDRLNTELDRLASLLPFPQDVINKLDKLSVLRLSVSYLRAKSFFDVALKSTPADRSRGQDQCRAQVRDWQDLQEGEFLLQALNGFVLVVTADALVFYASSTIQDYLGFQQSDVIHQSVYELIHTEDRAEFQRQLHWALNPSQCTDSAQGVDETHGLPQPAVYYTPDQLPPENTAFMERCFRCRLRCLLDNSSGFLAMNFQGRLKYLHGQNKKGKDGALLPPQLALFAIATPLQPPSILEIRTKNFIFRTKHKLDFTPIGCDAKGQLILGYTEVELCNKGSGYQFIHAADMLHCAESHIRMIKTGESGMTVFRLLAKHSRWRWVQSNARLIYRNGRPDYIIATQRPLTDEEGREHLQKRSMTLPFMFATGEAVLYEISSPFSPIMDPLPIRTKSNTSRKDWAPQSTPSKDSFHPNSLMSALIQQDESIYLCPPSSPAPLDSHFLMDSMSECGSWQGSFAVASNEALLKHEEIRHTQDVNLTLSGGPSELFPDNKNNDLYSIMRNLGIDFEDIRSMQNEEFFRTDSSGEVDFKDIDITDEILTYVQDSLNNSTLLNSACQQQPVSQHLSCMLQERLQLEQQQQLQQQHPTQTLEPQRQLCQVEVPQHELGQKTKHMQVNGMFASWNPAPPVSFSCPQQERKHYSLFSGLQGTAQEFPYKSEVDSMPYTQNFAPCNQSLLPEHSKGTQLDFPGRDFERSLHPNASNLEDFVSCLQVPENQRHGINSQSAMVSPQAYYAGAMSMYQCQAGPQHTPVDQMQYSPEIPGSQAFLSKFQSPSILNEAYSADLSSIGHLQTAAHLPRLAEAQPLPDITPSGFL
T1 sequence (P41739 whole entry partner): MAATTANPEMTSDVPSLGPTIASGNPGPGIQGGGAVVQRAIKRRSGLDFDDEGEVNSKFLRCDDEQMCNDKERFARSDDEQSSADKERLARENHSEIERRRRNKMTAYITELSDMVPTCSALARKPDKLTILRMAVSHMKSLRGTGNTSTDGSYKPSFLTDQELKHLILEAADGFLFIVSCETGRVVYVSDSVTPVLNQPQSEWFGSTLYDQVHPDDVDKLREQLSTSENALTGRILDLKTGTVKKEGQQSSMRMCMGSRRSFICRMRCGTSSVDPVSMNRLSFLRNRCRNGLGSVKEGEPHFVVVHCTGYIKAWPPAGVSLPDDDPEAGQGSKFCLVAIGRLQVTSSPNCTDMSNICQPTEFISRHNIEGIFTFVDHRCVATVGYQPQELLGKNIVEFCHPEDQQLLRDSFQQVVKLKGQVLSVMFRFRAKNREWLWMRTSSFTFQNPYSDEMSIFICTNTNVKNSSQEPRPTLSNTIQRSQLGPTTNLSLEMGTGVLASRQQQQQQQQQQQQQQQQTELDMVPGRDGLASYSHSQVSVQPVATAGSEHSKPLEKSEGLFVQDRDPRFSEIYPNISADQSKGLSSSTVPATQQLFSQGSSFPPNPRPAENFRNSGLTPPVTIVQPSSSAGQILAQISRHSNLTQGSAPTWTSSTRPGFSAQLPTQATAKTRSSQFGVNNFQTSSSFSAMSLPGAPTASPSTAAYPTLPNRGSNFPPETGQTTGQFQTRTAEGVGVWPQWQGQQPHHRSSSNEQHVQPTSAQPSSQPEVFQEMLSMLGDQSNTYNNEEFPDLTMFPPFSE

Binding activity of the XRE consensus sequence to nuclear protein AhR [1]: enhanced
Hepatic expression of CYP2C6/11 (CYP2C6/11): induced
p-Nitrophenol 6-hydroxylase (2E1) (CYP2E1): 91.1 ± 13.0^b pmol/min/mg protein
Ethoxyresorufin O-deethylase (1A1) (CYP1A1): 66.6 ± 13.5^b pmol/min/mg protein
SMILES: C=C1CC[C@@H]2[C@](C)(CO)[C@H](O)CC[C@@]2(C)[C@@H]1C/C=C1/C(=O)OC[C@H]1O [andrographolide, Andrographolide]
Hypoglycemic effect of tolbutamide in a glucose tolerance test ([2]; high-fat diet-induced obese mice treated with APE or andrographolide): not changed
Plasma glucose, time 0 h [2, 3]: 80 ± 7^a mg/dL
Plasma glucose, time 0.25 h [2, 3]: 152 ± 37^a mg/dL
Plasma glucose, time 0.5 h [2, 3]: 124 ± 28^ab mg/dL
Plasma glucose, time 1 h [2, 3]: 99 ± 29 mg/dL
Plasma glucose, time 2 h [2, 3]: 88 ± 28 mg/dL
Plasma glucose, time 4 h [2, 3]: 76 ± 17^a mg/dL
Plasma glucose, time 8 h [2, 3]: 80 ± 17^a mg/dL
Fasting blood glucose level ([2]; obese mice, APE or andrographolide for 5 days, fasted overnight): 80 ± 7 mg/dL
Area under the plasma glucose concentration versus time curve (AUC0–8 h) ([2]; obese mice, APE or andrographolide for 5 days, then tolbutamide and glucose load): 171 ± 42 mg·h/dL
